Like-named read-outs stand apart in the source and are kept apart here.
Columns and labels:
[1] = molecular target: human Werner helicase (WRN, amino acids 517-1235 with L1074F point mutation) (Homo sapiens (Human), UniProt Q14191, L1074F); test: WRN (BV08) ADP-Glo assay; type: biochemical; conditions: human WRN (aa 517-1235, L1074F), read-out: ADP-Glo_hWRN_IC50
In short: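 ADP-Glo luminescence read after 60 min, 25 °C reaction of 0.15 nM WRN (517-1235, L1074F, Sf9-expressed, tag removed) with 0.1 nM DNA duplex and 5 μM ATP, following 15 min compound preincubation; 20 mM Bicine pH 7.5, 1% DMSO. IC50 from 3- or 4-parameter fit of % inhibition.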

[2] = test system: p21 induction in HCT 116 cells; test: p21 induction in cells (In-Cell Western, p21/GAPDH ratio); type: cell-based; conditions: 24 h compound incubation, read-out: p21_EC50
In short: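 EC50 values come from nonlinear fits of percent activation, defined by the 800/700 nm p21-to-GAPDH ratio scaled between DMSO (low) and internal WRN inhibitor (high) controls. In-Cell Western read after 24 h compound exposure of HCT 116 cells at 37° C. Duplicate 11-point series, 2-fold steps, usually starting at 10 μM.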

human Werner helicase (WRN, amino acids 517-1235 with L1074F point mutation), sequence (Q14191 other isoform, or with tags, fused parts or gaps L1074F (already in the parent)): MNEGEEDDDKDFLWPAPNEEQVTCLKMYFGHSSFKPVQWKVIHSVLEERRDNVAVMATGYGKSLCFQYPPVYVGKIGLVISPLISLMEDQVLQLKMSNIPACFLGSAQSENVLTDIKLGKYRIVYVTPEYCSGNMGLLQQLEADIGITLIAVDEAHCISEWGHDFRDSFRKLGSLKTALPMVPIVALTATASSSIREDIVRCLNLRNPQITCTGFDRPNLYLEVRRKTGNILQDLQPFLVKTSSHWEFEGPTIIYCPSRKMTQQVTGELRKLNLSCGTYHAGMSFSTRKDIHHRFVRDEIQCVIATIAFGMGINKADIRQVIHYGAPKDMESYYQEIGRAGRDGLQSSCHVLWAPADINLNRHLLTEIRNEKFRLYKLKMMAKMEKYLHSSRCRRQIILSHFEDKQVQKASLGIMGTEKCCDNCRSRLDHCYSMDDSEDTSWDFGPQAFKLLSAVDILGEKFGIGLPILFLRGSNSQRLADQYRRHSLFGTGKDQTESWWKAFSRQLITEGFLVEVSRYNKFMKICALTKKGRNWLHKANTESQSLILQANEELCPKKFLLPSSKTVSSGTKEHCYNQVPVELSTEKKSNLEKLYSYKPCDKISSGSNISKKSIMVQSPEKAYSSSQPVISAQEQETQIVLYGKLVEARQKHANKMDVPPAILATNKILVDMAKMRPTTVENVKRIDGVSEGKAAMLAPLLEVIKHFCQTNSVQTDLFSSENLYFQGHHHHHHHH

IC50 [1] [nM] | EC50 ([2]; Homo sapiens) [nM] | EC50 [2] [nM] | Structure (SMILES)
5 to 50 | ≤ 500 | – | CCc1c(N2CCN(C(=O)c3c(OC)ncc(C)c3O)[C@H]3CC[C@@H]32)c(=O)c2nn(C3=CCOCC3)nc2n1CC(=O)NC12CC(C(C)C)(C1)C2 [Compound I-24, 2-(2-(3,6-dihydro-2H-pyran-4-yl)-5-ethyl-6-((1S,6S)-5-(4-hydroxy-2-methoxy-5-methylnicotinoyl)-2,5-diazabicyclo[4.2.0]octan-2-yl)-7-oxo-2,7-dihydro-4H-[1,2,3]triazolo[4,5-b]pyridin-4-yl)-N-(3-isopropylbicyclo[1.1.1]pentan-1-yl)acetamide]
5 to 50 | ≤ 500 | – | CCc1c(N2CCN(C(=O)c3ncnc(C)c3O)[C@H]3CC[C@@H]32)c(=O)c2nn(-c3cnn(C4CC4)c3)nc2n1CC(=O)NC12CC(C(C)C)(C1)C2 [Compound I-25, 2-(2-(1-cyclopropyl-1H-pyrazol-4-yl)-5-ethyl-6-((1S,6S)-5-(5-hydroxy-6-methylpyrimidine-4-carbonyl)-2,5-diazabicyclo[4.2.0]octan-2-yl)-7-oxo-2,7-dihydro-4H-[1,2,3]triazolo[4,5-b]pyridin-4-yl)-N-(3-isopropylbicyclo[1.1.1]pentan-1-yl)acetamide]
5 to 50 | ≤ 500 | – | CCc1c(N2CCN(C(=O)c3ncnc(C)c3O)[C@H]3CC[C@@H]32)c(=O)c2nn(C3=CCOCC3)nc2n1CC(=O)NC12CC(C3CC3)(C1)C2 [Compound I-26, N-(3-cyclopropylbicyclo[1.1.1]pentan-1-yl)-2-(2-(3,6-dihydro-2H-pyran-4-yl)-5-ethyl-6-((1S,6S)-5-(5-hydroxy-6-methylpyrimidine-4-carbonyl)-2,5-diazabicyclo[4.2.0]octan-2-yl)-7-oxo-2,7-dihydro-4H-[1,2,3]triazolo[4,5-b]pyridin-4-yl)acetamide]
5 to 50 | ≤ 500 | – | CCc1c(N2CCN(C(=O)c3ncnc(C)c3O)[C@H]3CC[C@@H]32)c(=O)c2nn(-c3ccnc(OC)c3)nc2n1CC(=O)NC12CC(C(C)(F)F)(C1)C2 [Compound I-27, N-(3-(1,1-difluoroethyl)bicyclo[1.1.1]pentan-1-yl)-2-(5-ethyl-6-((1S,6S)-5-(5-hydroxy-6-methylpyrimidine-4-carbonyl)-2,5-diazabicyclo[4.2.0]octan-2-yl)-2-(2-methoxypyridin-4-yl)-7-oxo-2,7-dihydro-4H-[1,2,3]triazolo[4,5-b]pyridin-4-yl)acetamide]
≤ 5 | ≤ 500 | – | CCc1c(N2CCN(C(=O)c3ncnc(C)c3O)[C@H]3CC[C@@H]32)c(=O)c2nn(-c3ccnc(OC)c3)nc2n1CC(=O)NC12CC(C3CCC3)(C1)C2 [Compound I-28, N-(3-cyclobutylbicyclo[1.1.1]pentan-1-yl)-2-(5-ethyl-6-((1S,6S)-5-(5-hydroxy-6-methylpyrimidine-4-carbonyl)-2,5-diazabicyclo[4.2.0]octan-2-yl)-2-(2-methoxypyridin-4-yl)-7-oxo-2,7-dihydro-4H-[1,2,3]triazolo[4,5-b]pyridin-4-yl)acetamide]
5 to 50 | ≤ 500 | – | CCc1c(N2CCN(C(=O)c3ncnc(C)c3O)[C@H]3CC[C@@H]32)c(=O)c2nn(-c3ccnc(OC)c3)nc2n1CC(=O)NC12CC(OC(F)(F)F)(C1)C2 [Compound I-29, 2-(5-ethyl-6-((1S,6S)-5-(5-hydroxy-6-methylpyrimidine-4-carbonyl)-2,5-diazabicyclo[4.2.0]octan-2-yl)-2-(2-methoxypyridin-4-yl)-7-oxo-2,7-dihydro-4H-[1,2,3]triazolo[4,5-b]pyridin-4-yl)-N-(3-(trifluoromethoxy)bicyclo[1.1.1]pentan-1-yl)acetamide]
5 to 50 | – | ≤ 500 | CCc1c(N2CCN(C(=O)c3ncnc(C)c3O)[C@H]3CC[C@@H]32)c(=O)c2nn(-c3ccnc(OC)c3)nc2n1CC(=O)NC12CC(C3CC3)(C1)C2 [Compound I-30, N-{3-cyclopropylbicyclo[1.1.1]pentan-1-yl}-2-{5-ethyl-6-[(1S,6S)-5-(5-hydroxy-6-methylpyrimidine-4-carbonyl)-2,5-diazabicyclo[4.2.0]octan-2-yl]-2-(2-methoxypyridin-4-yl)-7-oxo-2H,4H,7H-[1,2,3]triazolo[4,5-b]pyridin-4-yl}acetamide]
5 to 50 | – | ≤ 500 | CCc1c(N2CCN(C(=O)c3ncnc(C)c3O)[C@H]3CC[C@@H]32)c(=O)c2nn(C3=CCOCC3)nc2n1CC(=O)NC12CC(C3CC3)(C1)C2 [Compound I-31, N-{3-cyclopropylbicyclo[1.1.1]pentan-1-yl}-2-[2-(3,6-dihydro-2H-pyran-4-yl)-5-ethyl-6-[(1S,6S)-5-(5-hydroxy-6-methylpyrimidine-4-carbonyl)-2,5-diazabicyclo[4.2.0]octan-2-yl]-7-oxo-2H,4H,7H-[1,2,3]triazolo[4,5-b]pyridin-4-yl]acetamide]
5 to 50 | 500 to 2000 | – | CCc1c(N2CCN(C(=O)c3ncnc(C)c3O)[C@H]3CC[C@@H]32)c(=O)c2nn(C3CC3)nc2n1CC(=O)NC12CC(C3CC3)(C1)C2 [Compound I-32, 2-{2-cyclopropyl-5-ethyl-6-[(1S,6S)-5-(5-hydroxy-6-methylpyrimidine-4-carbonyl)-2,5-diazabicyclo[4.2.0]octan-2-yl]-7-oxo-2H,4H,7H-[1,2,3]triazolo[4,5-b]pyridin-4-yl}-N-{3-cyclopropylbicyclo[1.1.1]pentan-1-yl}acetamide]
5 to 50 | ≤ 500 | – | CCc1c(N2CCN(C(=O)c3ncnc(C)c3O)[C@H]3CC[C@@H]32)c(=O)c2nn(-c3cc(C)n(C)n3)nc2n1CC(=O)NC12CC(C3CC3)(C1)C2 [Compound I-34, N-{3-cyclopropylbicyclo[1.1.1]pentan-1-yl}-2-[2-(1,5-dimethyl-1H-pyrazol-3-yl)-5-ethyl-6-[(1S,6S)-5-(5-hydroxy-6-methylpyrimidine-4-carbonyl)-2,5-diazabicyclo[4.2.0]octan-2-yl]-7-oxo-2H,4H,7H-[1,2,3]triazolo[4,5-b]pyridin-4-yl]acetamide]
5 to 50 | ≤ 500 | – | CCc1c(N2CCN(C(=O)c3ncnc(C)c3O)[C@H]3CC[C@@H]32)c(=O)c2nn(-c3cc(C)n(C)n3)nc2n1CC(=O)NC12CC(C(C)C)(C1)C2 [Compound I-35, 2-[2-(1,5-dimethyl-1H-pyrazol-3-yl)-5-ethyl-6-[(1S,6S)-5-(5-hydroxy-6-methylpyrimidine-4-carbonyl)-2,5-diazabicyclo[4.2.0]octan-2-yl]-7-oxo-2H,4H,7H-[1,2,3]triazolo[4,5-b]pyridin-4-yl]-N-[3-(propan-2-yl)bicyclo[1.1.1]pentan-1-yl]acetamide]
5 to 50 | ≤ 500 | – | CCc1c(N2CCN(C(=O)c3ncnc(C)c3O)[C@H]3CC[C@@H]32)c(=O)c2nn(-c3cc(C)n(C)n3)nc2n1CC(=O)NC1CC2(CCC2)C1 [Compound I-36, 2-[2-(1,5-dimethyl-1H-pyrazol-3-yl)-5-ethyl-6-[(1S,6S)-5-(5-hydroxy-6-methylpyrimidine-4-carbonyl)-2,5-diazabicyclo[4.2.0]octan-2-yl]-7-oxo-2H,4H,7H-[1,2,3]triazolo[4,5-b]pyridin-4-yl]-N-{spiro[3.3]heptan-2-yl}acetamide]
5 to 50 | 500 to 2000 | – | CCc1c(N2CCN(C(=O)c3c(O)cncc3OC)CC2)c(=O)c2nn(-c3ccnc(OC)c3)nc2n1CC(=O)NC12CC(C(C)C)(C1)C2 [Compound I-37, 2-{5-ethyl-6-[4-(3-hydroxy-5-methoxypyridine-4-carbonyl)piperazin-1-yl]-2-(2-methoxypyridin-4-yl)-7-oxo-2H,4H,7H-[1,2,3]triazolo[4,5-b]pyridin-4-yl}-N-[3-(propan-2-yl)bicyclo[1.1.1]pentan-1-yl]acetamide]
5 to 50 | – | ≤ 500 | CCc1c(N2CCN(C(=O)c3ncnc(C)c3O)[C@H]3CC[C@@H]32)c(=O)c2nn(-c3ccnc(OC)c3)nc2n1CC(=O)NC12CC(OC(F)(F)F)(C1)C2 [Compound I-40, 2-{5-ethyl-6-[(1S,6S)-5-(5-hydroxy-6-methylpyrimidine-4-carbonyl)-2,5-diazabicyclo[4.2.0]octan-2-yl]-2-(2-methoxypyridin-4-yl)-7-oxo-2H,4H,7H-[1,2,3]triazolo[4,5-b]pyridin-4-yl}-N-[3-(trifluoromethoxy)bicyclo[1.1.1]pentan-1-yl]acetamide]
5 to 50 | 500 to 2000 | – | CCc1c(C23CCN(C(=O)c4ncnc(C)c4O)CC2C3)c(=O)c2nn(-c3ccnc(OC)c3)nc2n1CC(=O)NC12CC(C(C)C)(C1)C2 [Compound I-42, rel-2-{5-ethyl-6-[(1R,6S)-3-(5-hydroxy-6-methylpyrimidine-4-carbonyl)-3-azabicyclo[4.1.0]heptan-6-yl]-2-(2-methoxypyridin-4-yl)-7-oxo-2H,4H,7H-[1,2,3]triazolo[4,5-b]pyridin-4-yl}-N-[3-(propan-2-yl)bicyclo[1.1.1]pentan-1-yl]acetamide]
5 to 50 | ≤ 500 | – | CCc1c(N2CCN(C(=O)c3c(OCCOC)ncc(C)c3O)CC2)c(=O)c2nn(-c3ccnc(OC)c3)nc2n1CC(=O)NC12CC(C(C)C)(C1)C2 [Compound I-45, 2-(5-ethyl-6-{4-[4-hydroxy-2-(2-methoxyethoxy)-5-methylpyridine-3-carbonyl]piperazin-1-yl}-2-(2-methoxypyridin-4-yl)-7-oxo-2H,4H,7H-[1,2,3]triazolo[4,5-b]pyridin-4-yl)-N-[3-(propan-2-yl)bicyclo[1.1.1]pentan-1-yl]acetamide]

Source: US20250129069A1, “TRIAZOLO WRN INHIBITORS” (Nimbus Wadjet, Inc., priority 2023, published 2025)
